According to US20260102359A1, “COMBINATION TREATMENT OF DERMAL AND TRANSDERMAL FIBROTIC DISEASES, DISORDERS AND ASSOCIATED PAIN AND INFLAMMATION” (ERESINA, LLC, priority 2022, published 2026):
Where a name gives a salt, the structure may show the parent alone. *1 amine or outer side, *2 acyl side, *3 side chain or, on linkers, in order; H or OH if unused. Where a SMILES comes first, the peptide text is derived from it. Bridges are numbered along the chain shown (N, C = ends). Roman numbers before positions name the chains, in order. [ ]: non-standard residue; d: D form. Actinocin(9to1) = Cc1c2oc3c(C)ccc(C(=O)[*:1])c3nc-2c(C(=O)[*:2])c(N)c1=O; NMeV = CN[C@H](C(=O)O)C(C)C; Sar = CNCC(=O)O

Tested on: hDMFa myofibroblast cells

SMILES	Compound Myofibroblast Cytotoxicity Activity
CC(=O)O.Cc1cc2c(C(C)C)c(O)c(O)c(C=O)c2c(O)c1-c1c(C)cc2c(C(C)C)c(O)c(O)c(C=O)c2c1O [Cmpd 80, Acetate gossypol]	+++++
CC(=O)NO [Cmpd 81, Acetohydroxamic Acid]	++++
CC(=O)c1ccccc1 [Cmpd 82, Acetophenone]	++
CC(=O)OCC[N+](C)(C)C.[I-] [Cmpd 83, Acetylcholine iodide]	++
Cc1c2oc3c(C)ccc(C(=O)N[C@@H]4C(=O)N[C@H](C(C)C)C(=O)N5CCC[C@H]5C(=O)N(C)CC(=O)N(C)[C@@H](C(C)C)C(=O)O[C@@H]4C)c3nc-2c(C(=O)N[C@@H]2C(=O)N[C@H](C(C)C)C(=O)N3CCC[C@H]3C(=O)N(C)CC(=O)N(C)[C@@H](C(C)C)C(=O)O[C@@H]2C)c(N)c1=O [Cmpd 86, Actinomycin D] (I: T[dV]P[Sar][NMeV] / II: T[dV]P[Sar][NMeV]; ester I:1-I:C, II:1-II:C; linker I:N-II:N via Actinocin(9to1))	++
CC(C)(C)C(=O)OCOP(=O)(COCCn1cnc2c(N)ncnc21)OCOC(=O)C(C)(C)C [Cmpd 89, Adefovir Dipivoxil]	++++
Nc1ncnc2c1ncn2[C@@H]1O[C@H](COP(=O)(O)OP(=O)(O)OP(=O)(O)O)[C@@H](O)[C@H]1O [Cmpd 91, Adenosine 5-triphosphate]	+++
Nc1ncnc2c1ncn2[C@@H]1O[C@H](COP(=O)(O)OP(=O)(O)O)[C@@H](O)[C@H]1O [Cmpd 92]	++
C=C1C(=O)O[C@@H]2C[C@@]3(C)CCC[C@H](C)C3=C[C@H]12 [Cmpd 97, Alantolactone]	++++
C=C1/C(=C\C=C2/CCC[C@]3(C)[C@@H]([C@H](C)CCCC(C)C)CC[C@@H]23)C[C@@H](O)C[C@@H]1O [Cmpd 98, Alfacalcidol]	+++
Cn1c(=O)cc(N2CCC[C@@H](N)C2)n(Cc2ccccc2C#N)c1=O [Cmpd 100, Alogliptin Benzoate]	+++
Cc1[nH]cnc1CN1CCc2c(c3ccccc3n2C)C1=O.Cl [Cmpd 101, Alosetron Hydrochloride]	++++
N=C(N)NC(=O)c1nc(Cl)c(N)nc1N [Cmpd 105, Amiloride HCl dihydrate]	++
CCCCc1oc2ccccc2c1C(=O)c1cc(I)c(OCCN(CC)CC)c(I)c1 [Cmpd 107, Amiodarone HCl]	+++
CCOC(=O)C1=C(COCCN)NC(C)=C(C(=O)OC)C1c1ccccc1Cl (stereo not shown) [Cmpd 110, Amlodipine]	+++
CCOC(=O)C1=C(COCCN)NC(C)=C(C(=O)OC)C1c1ccccc1Cl (stereo not shown) [Cmpd 111, Amlodipine Besylate]	++++
CCC(C)(C)c1ccc(CC(C)CN2C[C@@H](C)O[C@@H](C)C2)cc1 (stereo partly shown) [Cmpd 113, Amorolfine HCl]	+++
COc1cc(NS(C)(=O)=O)ccc1Nc1c2ccccc2nc2ccccc12.Cl [Cmpd 116, Amsacrine hydrochloride]	+++
S=C(NCc1ccc2c(c1)OCO2)N1CCN(c2ncnc3c2oc2ccccc23)CC1 [Cmpd 117, Amuvatinib (MP-470,HPK 56)]	++
C[C@@H](O[C@H]1OCCN(Cc2n[nH]c(=O)[nH]2)[C@H]1c1ccc(F)cc1)c1cc(C(F)(F)F)cc(C(F)(F)F)c1 [Cmpd 126, Aprepitant]	++++

SMILES	Compound Myofibroblast Cytotoxicity Activity
O=C1CCc2ccc(OCCCCN3CCN(c4cccc(Cl)c4Cl)CC3)cc2N1 [Cmpd 129, Aripiprazole]	+++
COc1cccc2c1cc([N+](=O)[O-])c1c(C(=O)O)cc3c(c12)OCO3 [Cmpd 130, Aristolochic Acid A]	++
C[C@H]1[C@H](OC(=O)CCC(=O)O)O[C@@H]2O[C@@]3(C)CC[C@H]4[C@H](C)CC[C@@H]1[C@@]24OO3 [Cmpd 132, Artesunate]	+++
CC[C@@H]1/C=C(\C)C[C@H](C)C[C@H](OC)[C@H]2O[C@@](O)(C(=O)C(=O)N3CCCC[C@H]3C(=O)O[C@H](/C(C)=C/[C@@H]3CC[C@@H](O)[C@H](OC)C3)[C@H](C)[C@@H](O)CC1=O)[C@H](C)C[C@@H]2OC [Cmpd 133, Ascomycin(FK 520)]	+++
COc1ccc(CCN2CCC(Nc3nc4ccccc4n3Cc3ccc(F)cc3)CC2)cc1 [Cmpd 136, Astemizole]	++++
COC(=O)N[C@H](C(=O)N[C@@H](Cc1ccccc1)[C@@H](O)CN(Cc1ccc(-c2ccccn2)cc1)NC(=O)[C@@H](NC(=O)OC)C(C)(C)C)C(C)(C)C [Cmpd 138, Atazanavir]	++
CC(C)c1c(C(=O)Nc2ccccc2)c(-c2ccccc2)c(-c2ccc(F)cc2)n1CC[C@@H](O)C[C@@H](O)CC(=O)[O-].CC(C)c1c(C(=O)Nc2ccccc2)c(-c2ccccc2)c(-c2ccc(F)cc2)n1CC[C@@H](O)C[C@@H](O)CC(=O)[O-].[Ca+2] [Cmpd 140, Atorvastatin Calcium]	++++
COc1ccc(CC2c3cc(OC)c(OC)cc3CC[N+]2(C)CCC(=O)OCCCCCOC(=O)CC[N+]2(C)CCc3cc(OC)c(OC)cc3C2Cc2ccc(OC)c(OC)c2)cc1OC (stereo not shown) [Cmpd 142, Atracurium Besylate]	+++
CCOc1nc2cccc(C(=O)OCc3oc(=O)oc3C)c2n1Cc1ccc(-c2ccccc2-c2noc(=O)[nH]2)cc1 [Cmpd 149, Azilsartan Medoxomil]	++
Cc1ccc(NC(=O)c2ccc(CN3CC[C@H](N(C)C)C3)c(C(F)(F)F)c2)cc1Nc1nccc(-c2cncnc2)n1 [Cmpd 152, Bafetinib (INNO-406)]	+++
CNC1CCCN(c2c(F)cc3c(=O)c(C(=O)O)cn(C4CC4)c3c2OC)C1 (stereo not shown) [Cmpd 154, Balofloxacin Dihydrate]	++
COC(=O)[C@]12CCC(C)(C)C[C@H]1[C@H]1C(=O)C=C3[C@@]4(C)C=C(C#N)C(=O)C(C)(C)[C@@H]4CC[C@@]3(C)[C@]1(C)CC2 [Cmpd 156, Bardoxolone methyl]	+++++
CC(C)(C)c1ccc(S(=O)(=O)/C=C/C#N)cc1 [Cmpd 157, Bay 11-7085]	+++++
Cc1ccc(S(=O)(=O)/C=C/C#N)cc1 [Cmpd 158, Bay 11-7821(BAY 11-7082)]	+++++
Cc1c(-c2ccc(O)cc2)n(Cc2ccc(OCCN3CCCCCC3)cc2)c2ccc(O)cc12 [Cmpd 159, Bazedoxifene acetate]	++++
COC(=O)C1=C(C)NC(C)=C(C(=O)OC2CCCN(Cc3ccccc3)C2)C1c1cccc([N+](=O)[O-])c1 (stereo not shown) [Cmpd 161, Benidipine HCl]	++
NC(CO)C(=O)NNCc1ccc(O)c(O)c1O (stereo not shown) [Cmpd 162, Benserazide HCl]	++
Cl.N=C(N)c1ccccc1 [Cmpd 163, Benzamidine HCl]	+++
CCc1oc2ccccc2c1C(=O)c1cc(Br)c(O)c(Br)c1 [Cmpd 164, Benzbromarone]	++++
CCOC(=O)c1ccc(N)cc1 [Cmpd 166, Benzocaine]	++

SMILES	Compound Myofibroblast Cytotoxicity Activity
O=C(O)c1ccccc1 [Cmpd 167, Benzoic Acid]	++
O=C(c1ccccc1)c1ccccc1 [Cmpd 168, Benzophenone]	++
COc1ccc2cc3[n+](cc2c1OC)CCc1cc2c(cc1-3)OCO2.[Cl-] [Cmpd 172, Berberine hydrochloride]	++
COc1ccc2cc3[n+](cc2c1OC)CCc1cc2c(cc1-3)OCO2 [Cmpd 173, Berberine Sulfate]	++
CNCCc1ccccn1.CS(=O)(=O)O.CS(=O)(=O)O [Cmpd 175, Betahistine mesylate]	++
CCCCC(=O)O[C@]1(C(=O)CO)[C@@H](C)C[C@H]2[C@@H]3CCC4=CC(=O)C=C[C@]4(C)[C@@]3(F)[C@@H](O)C[C@@]21C [Cmpd 176, Betamethasone Valerate]	++
O=C(O)CCNC(=O)c1ccccc1 [Cmpd 177, Betamipron]	+++++
C=C(c1ccc(C(=O)O)cc1)c1cc2c(cc1C)C(C)(C)CCC2(C)C [Cmpd 178, Bexarotene]	++++
c1ccc(-c2ccc(C(c3ccccc3)n3ccnc3)cc2)cc1 (stereo not shown) [Cmpd 182, Bifonazole]	+++
Cc1ccc(-n2nc(C(C)(C)C)cc2NC(=O)Nc2ccc(OCCN3CCOCC3)c3ccccc23)cc1 [Cmpd 183, BIRB 796 (Doramapimod)]	++
CC[C@H](NC(=O)[C@H](C)NC)C(=O)N1C[C@@H](O)C[C@H]1Cc1c(-c2[nH]c3cc(F)ccc3c2C[C@@H]2C[C@H](O)CN2C(=O)[C@H](CC)NC(=O)[C@H](C)NC)[nH]c2cc(F)ccc12 [Cmpd 184, Birinapant (TL32711)]	++
CC(C)(c1ccc(O)cc1)c1ccc(O)cc1 [Cmpd 186, Bisphenol A]	++
CCN1CCN(c2cc(-c3ccc(F)cc3)c3c(n2)CCCCCC3)CC1 [Cmpd 187, Blonanserin]	+++
O=c1ccc2ccc(OCCCCN3CCN(c4cccc5sccc45)CC3)cc2[nH]1 [Cmpd 191, Brexpiprazole]	+++
Oc1c(Br)cc(Br)c2cccnc12 [Cmpd 194, Broxyquinoline]	+++
O=C(O)CCC(=O)O [Cmpd 196, Butane diacid]	++
CN(Cc1ccc(C(C)(C)C)cc1)Cc1cccc2ccccc12 [Cmpd 197, Butenafine HCl]	+++
Clc1ccc(CCC(Cn2ccnc2)Sc2c(Cl)cccc2Cl)cc1 (stereo not shown) [Cmpd 198, Butoconazole nitrate]	+++
